Results: PMC9049205 (RSC Advances, 2020)
Where two headings read alike, the source gives them in different places.

Experiments:
[1] = tested on: influenza virus (A/PR/8/34 H1N1 strain); assay: organism not typed; assay type: cell-based, Influenza A/PR/8/34 (H1N1); conditions: for EC50: 48 h, read-out: Anti-influenza virus activity EC50
avian influenza A H5N1 = conditions: mouse, in vivo; cited from earlier work
influenza A virus = conditions: in vitro; cited from earlier work

Compound | SI (selectivity index: CC50/EC50) [1] | anti-influenza activity (in words) [1] | EC50 ([1]; MDCK) [µM] | EC50 [1] [µM] | protection of mice challenged with lethal doses of avian influenza A H5N1 (avian influenza A H5N1) | median effective concentration (EC50), influenza A virus replication (influenza A virus)
COc1ccc(-c2noc(C)c2C(=O)N2CCC(c3ccc([N+](=O)[O-])cc3Cl)CC2)c(OC)c1 [Compound 1f, (4-(2-Chloro-4-nitrophenyl)piperidin-1-yl)(3-(2,4-dimethoxyphenyl)-5-methylisoxazol-4-yl)methanone] | 13.68 | excellent activity than ribavirin | 2.036 ± 0.009 |  |  | 
NC(=O)c1ncn([C@@H]2O[C@H](CO)[C@@H](O)[C@H]2O)n1 [Ribavirin, reference compound] | 6.37 |  | 9.891 ± 0.06 |  |  | 
Cc1onc(-c2cccc(Cl)c2Cl)c1C(=O)N1CCC(c2ccc([N+](=O)[O-])cc2Cl)CC1 [Compound 1d, (4-(2-Chloro-4-nitrophenyl)piperidin-1-yl)(3-(2,3-dichlorophenyl)-5-methylisoxazol-4-yl)methanone] |  | moderate activity | 21.572 ± 0.015 |  |  | 
Cc1onc(-c2ccccc2F)c1C(=O)N1CCC(c2ccc([N+](=O)[O-])cc2Cl)CC1 [Compound 1g, (4-(2-Chloro-4-nitrophenyl)piperidin-1-yl)(3-(2-fluorophenyl)-5-methylisoxazol-4-yl)methanone] | 12.27 | excellent activity than ribavirin | 1.356 ± 0.008 |  |  | 
(5-Benzyl-3-methylisoxazol-4-yl)(4-(2-chloro-4-nitrophenyl) piperidin-1-yl)methanone [Compound 1j] |  | moderate activity |  | 19.41 ± 0.012 |  | 
COc1ccccc1-c1noc(C)c1C(=O)N1CCC(c2ccc([N+](=O)[O-])cc2Cl)CC1 [Compound 1b, (4-(2-Chloro-4-nitrophenyl)piperidin-1-yl)(3-(2-methoxyphenyl)-5-methylisoxazol-4-yl)methanone] | 272.93 | excellent activity than ribavirin | 0.253 ± 0.001 |  |  | 
Cc1onc(-c2ccccc2)c1C(=O)N1CCC(c2ccc([N+](=O)[O-])cc2Cl)CC1 [Compound 1a, (4-(2-Chloro-4-nitrophenyl)piperidin-1-yl)(5-methyl-3-phenylisoxazol-4yl)methanone] | 22.02 | excellent activity than ribavirin | 0.898 ± 0.004 |  |  | 
COc1nc2ccccc2cc1-c1noc(C)c1C(=O)N1CCC(c2ccc([N+](=O)[O-])cc2Cl)CC1 [Compound 1e, (4-(2-Chloro-4-nitrophenyl)piperidin-1-yl)(3-(2-methoxyquinolin-3-yl)-5-methylisoxazol-4-yl)methanone] | 2.52 | moderate activity | 9.905 ± 0.01 |  |  | 
Cc1onc(-c2ccccc2)c1C(=O)N1CCN(c2ccc([N+](=O)[O-])cc2Cl)CC1 [nucleozin, Nucleozin] |  |  |  |  | protected mice | nanomolar
(4-(2-Chloro-4-nitrophenyl)piperidin-1-yl)(3-methyl-5-styrylisoxazol-4-yl)methanone [Compound 1i] |  | moderate activity |  | 34.483 ± 0.014 |  | 
CSc1ccccc1-c1noc(C)c1C(=O)N1CCC(c2ccc([N+](=O)[O-])cc2Cl)CC1 [Compound 1c, (4-(2-Chloro-4-nitrophenyl)piperidin-1-yl)(5-methyl-3-(2-(methylthio)phenyl)isoxazol-4-yl)methanone] | 398.41 | excellent activity than ribavirin | 0.502 ± 0.002 |  |  | 
Cc1onc(-c2ccco2)c1C(=O)N1CCC(c2ccc([N+](=O)[O-])cc2Cl)CC1 [Compound 1h, (4-(2-Chloro-4-nitrophenyl)piperidin-1-yl)(3-(furan-2-yl)-5-methylisoxazol-4-yl)methanone] |  | moderate activity | 16.226 ± 0.012 |  |  | 
